Some test systems named below: MDA-MB-435; HS 578T breast; DU-145 prostate; NCI/ADR-RES ovarian; T-47D breast; MCF7 breast; HOP-18 NSCLC; DLD-1 colon; DMS 114 small cell lung; SNB-78 CNS.
What all share (assay): NCI tumour cell line growth inhibition, 48 h

Structures are written as SMILES. Where “and” joins values, the source holds several entries; their conditions need not be identical. Equal entries are not always repeated.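 Growth conditions: 96-well plates. Treatment: test compound, 48 hours, 5 concentrations. Analysis: linear interpolation between bracketing concentrations; unreached endpoints set to highest concentration. The concentration for 50% growth inhibition is given as GI50. TGI marks complete inhibition of growth.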 A value given as a limit tells only on which side of the number the result lay.

With `CCOC(=O)N1CCN(CCCCCOc2ccccc2C2CCCCC2)CC1`, the GI50 with MDA-MB-435 was 3.88 µM; with HS 578T breast it was 12.8 µM; in the assay on DU-145 prostate, 14.4 µM; in the assay with NCI/ADR-RES ovarian, 2.05 µM; in the assay with T-47D breast, 2.35 µM; in the assay on MCF7 breast, 3.2 µM. The TGI in the assay with MDA-MB-435 came to 15.1 µM; in the assay on HS 578T breast, 34.8 µM; in the assay with DU-145 prostate it was 32.3 µM; in the assay with NCI/ADR-RES ovarian, 5.66 µM; with T-47D breast, 14.4 µM; in the assay with MCF7 breast, 13.1 µM.
Consider `CCOc1ccc(Nc2c3ccccc3nc3ccccc23)cc1`, for which the GI50 is 0.0382 µM and 0.0574 µM in the assay with MDA-MB-435; 1.23 µM and 0.29 µM in the assay on HS 578T breast; 0.843 µM and 1.01 µM in the assay with DU-145 prostate; 0.271 µM and 0.117 µM with NCI/ADR-RES ovarian; 1.34 µM and 0.916 µM in the assay with T-47D breast; 0.318 µM and 0.297 µM in the assay with MCF7 breast. In addition, the TGI in the assay with MDA-MB-435 is 0.359 µM and 0.279 µM; in the assay with DU-145 prostate, 9.34 µM and 6.59 µM; with NCI/ADR-RES ovarian, 0.588 µM; with T-47D breast, 3.78 µM and 3.83 µM; in the assay with MCF7 breast, 4.2 µM and 4.23 µM.
On to `Nc1cc(-c2ccc(Cl)cc2)nn1-c1nnc(/C=C/c2ccco2)c(=O)[nH]1`, for which the GI50 in the assay on MDA-MB-435 was 5.9 µM; in the assay with HS 578T breast, 10.2 µM; in the assay with DU-145 prostate, 4.5 µM; in the assay on NCI/ADR-RES ovarian it was 1.48 µM; in the assay with T-47D breast, 5.35 µM; in the assay with MCF7 breast it was 2.95 µM. The TGI in the assay on MDA-MB-435 is over 100 µM; in the assay with HS 578T breast, over 64.3 µM; with DU-145 prostate, 28.2 µM; in the assay on NCI/ADR-RES ovarian it was 10.5 µM; with T-47D breast it was over 66.5 µM; in the assay on MCF7 breast, 26.1 µM.
`CC(=O)[CH-]C(=O)c1ccccc1.CC(=O)[CH-]C(=O)c1ccccc1.CC1(C)OCC(C2OC3OC(C)(C)OC3C2[O-])O1.CC[O-].[Ti+4]` (configuration not stated): in the assay with HOP-18 NSCLC, the GI50 is 21.4 µM and the TGI is 56.5 µM. Besides, in the assay with DLD-1 colon, the GI50 was 9.78 µM and the TGI came to 24.7 µM.
For the compound `Cc1cccc(N(CC(=O)O)S(=O)(=O)c2ccccc2)c1`, the TGI in the assay with HOP-18 NSCLC and in the assay on DLD-1 colon was over 100 µM throughout.
For the compound `O=C(O)c1ccccc1C(=O)c1ccc2c(c1)Cc1ccccc1-2`, the TGI in the assay with MDA-MB-435, in the assay on HS 578T breast, with DU-145 prostate, in the assay with NCI/ADR-RES ovarian, with T-47D breast and in the assay on MCF7 breast was over 100 µM throughout.
For the compound `CCCCCCCCCCCCCC[n+]1cccc(C(N)=O)c1`, the GI50 in the assay on MDA-MB-435 was 1.5 µM; in the assay on HS 578T breast, 2.64 µM; in the assay with DU-145 prostate it was 3.3 µM; in the assay on NCI/ADR-RES ovarian it was 25.6 µM; in the assay on T-47D breast it was 4.66 µM; in the assay on MCF7 breast, 2.62 µM. For the same compound, the TGI in the assay with MDA-MB-435 is 3.24 µM; with HS 578T breast it was 10.3 µM; in the assay with DU-145 prostate it was 11.6 µM; with NCI/ADR-RES ovarian, over 80.3 µM; in the assay on T-47D breast, 27.6 µM; in the assay on MCF7 breast, 11.4 µM.
On to `C=C1C2Oc3ccccc3C1N(c1ccccc1)O2` (configuration not stated), for which the figures for the TGI in the assay with DMS 114 small cell lung and with DLD-1 colon were 79 µM and over 100 µM, respectively.
In the case of `COc1ccc2c(NCCCCCCNc3c4ccccc4nc4cc(OC)ccc34)c3ccccc3nc2c1`, the TGI in the assay on MDA-MB-435 was determined as 1.26 µM; with HS 578T breast it was 0.937 µM; in the assay on HOP-18 NSCLC, 10.9 µM; with DU-145 prostate, 1.47 µM; in the assay with NCI/ADR-RES ovarian, 18.8 µM; in the assay on T-47D breast, 6.16 µM. Further, the TGI with MCF7 breast came to 3.35 µM; in the assay with DLD-1 colon, 2.62 µM.
Take `COC(=O)C1C(=O)N(CCc2c[nH]c3ccccc23)C[C@@H]2CCC(=O)C[C@H]12` (some centres not stated): the TGI in the assay with SNB-78 CNS, in the assay with DMS 114 small cell lung and in the assay with DLD-1 colon was over 100 µM in each case.
On to `N#Cc1c(-c2ccco2)cc(-c2ccccc2)[nH]c1=O`, for which the TGI with SNB-78 CNS and in the assay on DLD-1 colon was over 100 µM throughout.
As to `COc1cc2nc(-c3ccc(C(F)(F)F)cc3)cc(OCCCN3CCCC3)c2cc1OC`, the GI50 is 1.15 µM in the assay with MDA-MB-435; 2.48 µM in the assay with HS 578T breast; 0.992 µM in the assay with DU-145 prostate; 0.47 µM in the assay with NCI/ADR-RES ovarian; 0.478 µM in the assay on T-47D breast; 1.12 µM with MCF7 breast. Also, the TGI in the assay on MDA-MB-435 is 15.1 µM; in the assay with HS 578T breast, 19.3 µM; with DU-145 prostate it was over 46.6 µM; in the assay on NCI/ADR-RES ovarian it was 39 µM; with T-47D breast, 15.9 µM; in the assay with MCF7 breast, 4.13 µM.
Turning to `CC(C)(C)c1ccc(OC2CCO2)cc1` (configuration not stated), the TGI in the assay on HOP-18 NSCLC, in the assay with SNB-78 CNS and in the assay on DMS 114 small cell lung was over 100 µM throughout.
Regarding `Cc1ccc(C)c(N2C(=O)C(=O)C(c3nc4ccccc4s3)C(=Nc3cccc4c(=O)[nH][nH]c(=O)c34)C2=O)c1` (configuration not stated), the TGI in the assay on HOP-18 NSCLC, in the assay with DMS 114 small cell lung and in the assay with DLD-1 colon was over 100 µM each time.
With `COC(=O)c1ccc2c(c1)C(=O)c1c-2n(CCCN=[N+]=[N-])c(=O)c2cc([N+](=O)[O-])ccc12`, the GI50 in the assay on MDA-MB-435 is over 100 µM; in the assay with HS 578T breast it was 42.6 µM; in the assay with DU-145 prostate it was 70.9 µM; in the assay with NCI/ADR-RES ovarian, over 100 µM; with T-47D breast, over 100 µM; with MCF7 breast, over 100 µM. The TGI in the assay with MDA-MB-435, with HS 578T breast, in the assay on DU-145 prostate, with NCI/ADR-RES ovarian, with T-47D breast and with MCF7 breast was over 100 µM throughout.
On to `CC(C)(C)OC(=O)NC1CCCC1=O` (configuration not stated), for which the TGI with SNB-78 CNS and in the assay on DLD-1 colon was over 100 µM each time.
For `O=C1c2cccc3cccc(c23)C(=O)N1O`, the TGI with MDA-MB-435, with HS 578T breast, in the assay with DU-145 prostate, in the assay with NCI/ADR-RES ovarian, with T-47D breast and with MCF7 breast was over 100 µM throughout.
In the case of `O=c1[nH]c2cc([N+](=O)[O-])ccc2nc1/C(=N\Nc1ccccc1)C(O)c1ccc2c(c1)OCO2` (configuration not stated), the TGI with SNB-78 CNS, in the assay on DMS 114 small cell lung and with DLD-1 colon was over 100 µM throughout.
Take `C=CCNC(=O)N(CCC)CCCC(NC(C)=O)C(=O)NCc1ccccc1` (configuration not stated): the TGI with HOP-18 NSCLC and with DMS 114 small cell lung was over 100 µM each time.

Values taken from PubChem BioAssay (NCI).
